Source: patent US5475015A, “Benzimidazole derivatives, their preparation and pharmaceutical use” (NeuroSearch A/S, priority 1993, dated 1995)

What was measured:
[1] = tested on: calf aortic smooth muscle cells; assay: Whole-cell current clamp recording of membrane potential; type: cell-based; details: 10 μM to the bath
Protocol: (§1) All experiments were performed with patch-clamp technique (Hamill et al., Pflugers Arch. 391, 85-100 (1981)). The ion composition of the internal solution was (in mM) 140 KCl, 1 CaCl2, 1 MgCl2, 2 EGTA, 10 HEPES and the external solution contained 140 NaCl, 4 KCl, 2 CaCl2, 1 MgCl2 and 10 HEPES.
The membrane potential of calf aortic smooth muscle cells was determined in whole-cell recordings using current clamp mode (HEKA EPC-9 patch-clamp amplifier). Due to the high-resistance seal and the large size of these cells the recorded membrane potential stayed stable for periods of 30-60 min, although at somewhat depolarized values (-58--22 mV). Administration of for example 1-(5-trifluoromethyl-2-hydroxyphenyl)-5-trifluoromethyl-1,3-dihydro-2H-benzimidazol-2-one (10 μM) to the bath hyperpolarized the cells after a delay of 1-3 min. The average hyperpolarization was -20 mV (SD=-9 mV, n=7), and the effect was largest in the cells being most depolarized prior to administration of the compound.
The equilibrium potential for K+, Cl-, and Na+ in these experiments were -90 mV, 0 mV, and +90 mV, respectively (cf. ion composition above). Thus, since potassium is the only ion having a reversal potential more negative than the resting membrane potential the observed hyperpolarization induced by the test compound must be explained through an increased potassium conductance.

[2] = tested on: BK channel; assay: Single channel experiments, inside-out patches of cerebellar granule cell membrane; type: cell-based; details: 3 μM
Protocol: as §1

[3] = tested on: delayed rectifier K+ channel; assay: Single channel experiments, inside-out patches of cerebellar granule cell membrane: delayed rectifier; type: cell-based; details: 3 μM
Protocol: as §1
(§2) In inside-out patches of cerebellar granule cell membrane single BK channels were activated by for example 5-trifluoromethyl1-(5-trifluoromethyl-2-hydroxyphenyl)-1,3-dihydro-2H-benzimidazole-2-one (3 μM). […] No effect was found on the delayed rectifier K+ channel or on the Cl- channels also present in the patches.

[4] = tested on: Cl- channels; assay: Single channel experiments, inside-out patches of cerebellar granule cell membrane: Cl- channels; type: cell-based; details: 3 μM
Protocol: as §1, §2

[5] = tested on: BK channel; assay: Single channel experiments in cultured bovine aortic smooth muscle cells; type: cell-based; details: 3 μM
Protocol: as §1

[6] = tested on: acetylcholine-contracted guinea-pig ileum; assay: Guinea-pig ileum experiment (relaxation of acetylcholine-contracted ileum)
Protocol: The compound, 5-trifluoromethyl-1-(5-trifluoromethyl-2-hydroxyphenyl)-1,3-dihydro-2H-benzimidazole-2-one, has been studied for its ability to relax acetylcholine-contracted guinea-pig ileum. The smooth muscle cells of the ileum express many BK channels and the model predicts relaxing effects on the gastrointestinal or urogenital tracts. […] The effect of 30 μM compound is reversed by the BK channel blocker TEA+ (1-3 mM), confirming that the relaxing effect is mediated via BK channels.
Method: Ileum from guinea-pigs are isolated and mounted in an isometric contraction chamber. It is bathed in a physiological Krebs solution at 98° F. The ileum is precontracted with increasing concentrations of acetylcholine (0.015-5.0 μM). The contractions are reversed by including the compound in the bathing solution.

[7] = tested on: Guinea pig trachea; assay: Trachea experiment (vagus nerve stimulated pressure increase)
Source text: The compound, 5-trifluoromethyl-1-(5-trifluoromethyl-2-hydroxyphenyl)-1,3-dihydro-2H-benzimidazole-2-one, has been studied in a trachea model in which relaxation predicts anti-asthmatic potential.
Method: Guinea pig trachea is isolated with intact vagus nerve. Tubes are inserted into both ends and ligated tightly so the pressure in the fluid-filled lumen can be monitored. Electrical stimulation of the vagus nerve leads to a contraction and a pressure increase. The difference in electrically-stimulated pressure increase in the absence and presence of compound is measured.

[8] = tested on: cocaine induced hypermotility; assay: Cocaine motility test; type: in vivo, NMRI mice
Protocol: The compound, 5-trifluoromethyl-1-(5-trifluoromethyl-2-hydroxyphenyl)-1,3-dihydro-2H-benzimidazole-2-one, has been studied in the cocaine motility test. Cocaine induces hypermotility due to an inhibition of dopamine reuptake. The test is recognized as a test predicting anti-psychotic activity.
Method: Two female NMRI mice (20-25 g) are placed in each test box (normal transparent plexiglas cage, w, l, h=21×39×19 cm ) in the test room for at least 16 hours with food and water ad libitum before the test in order for the animals to habituate to the situation. The test compound is administered i.p. 15 min before saline or 25 mg/kg cocaine i.p. to 32 mice (16 boxes) per dose. Food and water are withdrawn, and the motility is measured as the number of interrupted infrared photo-beams (8 per box placed 5 cm apart and 3 cm over the bottom of the cage) in the next 120 min.

O=c1[nH]c2cc(C(F)(F)F)ccc2n1-c1cc(C(F)(F)F)ccc1O [Example 6, 1-(2-Hydroxy-5-trifluoromethylphenyl)-5-trifluoromethyl-1,3-dihydro-2H-benzimidazol-2-one]
delay before hyperpolarization of the cells [1]: 1 to 3 min | average hyperpolarization ([1]; current clamp, SD=-9 mV, n=7): -20 mV | increase of the open probability of the BK channel [2]: several hundred percent | effect on the delayed rectifier K+ channel [3]: No effect | effect on the Cl- channels [4]: No effect | activation of the BK channel [5]: significantly activated | effect of BK channel blocker TEA+ on the relaxing effect ([6]; 30 μM compound, TEA+ 1-3 mM): reversed | relaxation of acetylcholine-contracted ileum ([6]; 3-30 μM): relaxes the ileum in a dose-dependent way | potentiation of the relaxing effect of lemakalim ([7]; 10 μM compound): 10 x | relaxation of trachea ([7]; 10-100 μM): relaxes trachea in a dose-dependent way | effect of compound by itself on motility ([8]; 30 mg/kg, without cocaine): weak hyperactivity | antagonism of cocaine induced hypermotility ([8]; 1-10 mg/kg i.p. 15 min before 25 mg/kg cocaine i.p., mice, motility over 120 min): antagonizes cocaine induced hypermotility
